This test relates to wild-type mice. The test is described as follows: Peripheral OT infusion in wild-type littermate mice. It counts as in vivo. The following applies: peripheral 50 nmol/day over 3 days. On the procedure:
The beneficial metabolic effects of OT administration were assayed in the same high-fat diet induced obesity model in rats as in Example 1 and in PPAR-alpha knockout mice (Lee et al., 1995, Mol. Cell. Biol., 15(6):3012-22). HFD-induced obese animals, saline or OT groups (see conditions under Example 1) were subcutaneously infused via minipumps (Alzet®, as above). OT was delivered at a dose of 50 nmol/day/rat during 14 days.
OT was peripherally administered with 50 nmol/day over 3 days in PPAR-alpha knockout (KO) mice and their wild-type littermates. […] Consistently, OT peripheral infusion promoted an increase in the mRNA expression of PPAR-alpha target genes (Acadm, Acox1, Ehhadh, Ucp3) in wild-type mice, while it had no effect in PPAR-alpha knockouts.

The values below come from patent US9101569B2, “Methods for the treatment of insulin resistance” (UNIVERSITE DE GENEVE, priority 2010, dated 2015).

The structures appear in SMILES notation.

In the case of `CC[C@H](C)[C@@H]1NC(=O)[C@H](Cc2ccc(O)cc2)NC(=O)[C@@H](N)CSSC[C@@H](C(=O)N2CCC[C@H]2C(=O)N[C@@H](CC(C)C)C(=O)NCC(N)=O)NC(=O)[C@H](CC(N)=O)NC(=O)[C@H](CCC(N)=O)NC1=O` [OT, Cys-Tyr-Ile-Gln-Asn-Cys-Pro-Leu-Gly (SEQ ID NO: 1)], the body weight gain result is on record as “significant decrease” and the “mRNA expression of PPAR-alpha target genes (Acadm, Acox1, Ehhadh, Ucp3)” value is listed as “increase”.
